Reference: patent US20100323456A1 (priority 2006, published 2010)
Several values for one entry are separate records, joined by “and”; a condition that tells them apart may be missing. Equal values may be shown once. Entries after “also recorded” stand apart in the source; their conditions may differ. Read-outs that look alike come from different tables or passages of the source. Non-standard residues stand in square brackets, D forms with d. Residues, ends and D or L forms follow the SMILES beside them.

Key:
central ET receptors = settings: intracerebroventricular administration; cited from earlier work
[1] = test system: G-proteins coupled to opioid and ET receptors; assay: [35S]GTPγS binding assay (G-protein stimulation) in neuronal membranes of neonatal rat brain, placebo and morphine withdrawal groups; format: biochemical; settings: for Effect on [35S]GTPγS binding: brain of neonatal rats; for Effect on GTP binding: morphine withdrawal group compared to placebo; for Maximal stimulation of [35S]GTPγS binding / EC50: neonatal rat brain; for Maximal stimulation of [35S]GTPγS binding: 0.98 to 1000 nM; for EC50: read-out: EC50 for stimulated [35S]GTPγS binding
ET receptors = settings: co-administration with morphine; cited from earlier work

Compound	Effect on mean arterial blood pressure (BP) (central ET receptors)	Effect on [35S]GTPγS binding [1]	Effect on GTP binding [1]	Maximal stimulation of [35S]GTPγS binding ([1]; morphine withdrawal group)	EC50 ([1]; morphine withdrawal group)	Maximal stimulation of [35S]GTPγS binding ([1]; placebo group)	EC50 ([1]; placebo group) [nM]	Effect on morphine-induced analgesia and hyperthermia (ET receptors)	Effect on G-protein stimulation / GTP binding ([1]; placebo (normal) group)
CC[C@H](C)[C@H](NC(=O)[C@H](CC(=O)O)NC(=O)[C@H](CC(C)C)NC(=O)[C@H](Cc1c[nH]cn1)NC(=O)[C@@H]1CSSC[C@H](N)C(=O)N[C@@H](CO)C(=O)N[C@H]2CSSC[C@H](NC(=O)[C@H](CCC(=O)O)NC(=O)[C@H](CCCCN)NC(=O)[C@H](CC(=O)O)NC(=O)[C@H](CCSC)NC(=O)[C@H](CC(C)C)NC(=O)[C@H](CO)NC(=O)[C@H](CO)NC2=O)C(=O)N[C@@H](C(C)C)C(=O)N[C@@H](Cc2ccc(O)cc2)C(=O)N[C@@H](Cc2ccccc2)C(=O)N1)C(=O)N[C@H](C(=O)N[C@@H](Cc1c[nH]c2ccccc12)C(=O)O)[C@@H](C)CC [ET-1]	transient rise followed by sustained fall	concentration-dependent increase	lower; also recorded: attenuated	87.16±4.83%	171 nM	74.88±1.50%	20.66 ± 0.12	–	–
CC(C)C[C@@H]1NC(=O)[C@@H](C(C)C)NC(=O)[C@@H]2CCCN2C(=O)[C@@H](CC(=O)O)NC(=O)[C@@H](Cc2c[nH]c3ccccc23)NC1=O [BQ123] (cyclo(L[dW][dD]P[dV]))	–	–	–	–	–	–	–	potentiate morphine-induced analgesia and hyperthermia without affecting catalepsy	–
Cc1noc(NS(=O)(=O)c2cccc3c(N(C)C)cccc23)c1C [BMS182874]	–	concentration-dependent increase	significantly increased GTP binding	86.07%	31.2 nM and 33.2 nM	6.71±1.51%	> 1000	–	did not affect GTP binding; also recorded: did not stimulate G-proteins
CN1CC[C@]23c4c5ccc(O)c4O[C@H]2[C@@H](O)C=C[C@H]3[C@H]1C5 [Morphine]	–	concentration-dependent increase	higher	83.60% and 83.60±5.77%	–	66.81% and 66.31±1.51%	–	–	–
